{"source": "patent US8288559B2", "about": "“Luminogenic compounds and methods to detect cytochrome P450 3A enzymes” (Promega Corporation, priority 2008, dated 2012)", "key": {"[1]": {"target": "T1, CYP3A4 (Homo sapiens, UniProt P08684)", "T1 sequence (P08684 whole entry)": "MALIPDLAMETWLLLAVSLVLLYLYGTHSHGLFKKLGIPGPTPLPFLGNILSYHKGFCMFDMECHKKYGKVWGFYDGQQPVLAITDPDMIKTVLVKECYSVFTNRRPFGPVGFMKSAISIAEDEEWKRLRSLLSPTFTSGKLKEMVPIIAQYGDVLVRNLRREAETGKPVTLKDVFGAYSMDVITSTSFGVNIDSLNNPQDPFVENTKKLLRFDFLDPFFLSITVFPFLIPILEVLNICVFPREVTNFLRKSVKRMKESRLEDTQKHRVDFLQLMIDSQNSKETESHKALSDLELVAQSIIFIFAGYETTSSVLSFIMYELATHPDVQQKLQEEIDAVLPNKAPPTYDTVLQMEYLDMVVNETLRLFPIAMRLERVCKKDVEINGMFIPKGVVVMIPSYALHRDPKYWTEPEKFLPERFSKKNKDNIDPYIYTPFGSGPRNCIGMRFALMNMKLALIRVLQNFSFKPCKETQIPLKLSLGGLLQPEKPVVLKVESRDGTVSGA", "protocol": "In FIGS. 3-6, CYP3A4 enzyme was co-expressed with cytochrome b5 and cytochrome P450 reductase in membrane fractions (Supersomes™). […] The reactions were initiated by addition of the NADPH regenerating system and incubated for 10 minutes at 37° C. After incubation, an equal volume (50 μl) of LDR was added and luminescence read 20 minutes later at room temperature on a Veritas™ luminometer. […] IC50 is the concentration of inhibitor that causes 50% inhibition of the reaction. Curve fits and IC50 calculations were performed with the program GraphPad Prism™."}, "[2]": {"target": "T1, CYP3A4", "settings": "cited from earlier work"}, "[3]": {"target": "T2, CYP3A4 versus CYP3A5 (Homo sapiens, UniProt P20815)", "T2 construct": "purchased Discovery Labware (Supersomes™); host or cells: insect cell expression system", "T2 sequence (P20815 whole entry)": "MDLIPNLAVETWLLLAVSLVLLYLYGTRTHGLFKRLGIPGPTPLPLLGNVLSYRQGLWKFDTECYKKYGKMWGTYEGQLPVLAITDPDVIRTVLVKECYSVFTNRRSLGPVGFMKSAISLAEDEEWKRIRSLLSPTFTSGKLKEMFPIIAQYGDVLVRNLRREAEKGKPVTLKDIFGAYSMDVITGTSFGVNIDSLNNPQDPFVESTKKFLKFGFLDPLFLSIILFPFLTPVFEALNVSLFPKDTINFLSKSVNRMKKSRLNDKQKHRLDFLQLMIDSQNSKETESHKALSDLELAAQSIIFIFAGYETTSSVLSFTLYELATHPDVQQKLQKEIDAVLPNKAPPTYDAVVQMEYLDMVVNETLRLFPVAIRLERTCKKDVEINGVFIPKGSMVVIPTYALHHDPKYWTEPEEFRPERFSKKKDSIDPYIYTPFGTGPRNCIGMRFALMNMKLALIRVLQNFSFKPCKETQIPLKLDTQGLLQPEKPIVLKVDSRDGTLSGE", "test": "Two-step luminescent P450 assay, recombinant enzyme panel screen", "assay_type": "biochemical", "settings": "human, recombinant human CYP3A4 and CYP3A5 microsomes (Supersomes), pH 7.4; FIG. 2 conditions: 50 μM compound, 1 pmole P450, 30 minutes; read-out: selectivity for CYP3A4 over CYP3A5", "protocol": "(§1) For assays using recombinant P450 enzymes, a two-step scheme was followed whereby a luciferin derivative is oxidized by a P450 enzyme in a first step. In the second step, LDR is added to the P450 reaction mixture to stop the P450 activity and initiate a glow-style luciferase reaction whereby the luminescent signal strength is dependent on the amount of luciferin derivative oxidized by a P450 enzyme in the first step.\n(§2) Reaction buffers for the P450 enzyme reaction of the first step varied depending on the P450 enzyme used. […] Unless otherwise indicated, the following buffer/enzyme combinations were used: 100 mM KPO4, pH 7.4 for CYP1A1, 1A2, 1B1, 2D6, 2E1, 3A5, 3A7, 2J2, 4F12, 19, and control samples; 50 mM KPO4, pH 7.4 for CYP2B6, 2C8, 2C19, 4F2, 4F3A, 4F3B; 25 mM KPO4, pH 7.4 for CYP2C9; 200 mM KPO4, pH 7.4 for CYP3A4; 100 mM TrisHCl, pH 7.5 for CYP2A6, 2C18, 4A11.\n(§3) In FIG. 2 and FIGS. 8-19, luciferin derivatives were screened against a panel of recombinant human cytochrome P450 enzyme and control microsomes (Supersomes™). Concentrated stock solutions of the proluciferin acetal compounds were prepared as follows: 50 mM 3320, 3357, 3364, 3366 and 3391 in acetonitrile; 50 mM 3359, 3365, 3397 and 3403 in dimethyl sulfoxide (DMSO); 50 mM 3377 in H2O; 10 mM 3363 in H2O. Luciferin-PPXE, luciferin-PFBE and luciferin-BE were provided as a 50 mM solution in DMSO, 2 mM solution in 25 mM Tris, pH 8 and a 5 mM solution in 100 mM KPO4, pH 7.4, respectively. Assays were performed in opaque, white, polystyrene, flat-bottom 96-well plates.\n(§4) In FIG. 20 using compound 3391, the method used in FIGS. 2 and 8-19 was used with the following changes: 0.1 picomole of each P450 enzyme or an equivalent volume of control membranes was used per reaction; for all reactions, 2 μM compound 3391 was used, 100 mM KPO4, pH 7.4 was used as the P450 reaction buffer, and the reaction was incubated for 10 minutes at 37° C.\n(§5) Briefly, in a first step a proluciferin acetal of the present invention is oxidized initially by a P450 enzyme. The oxidized product is then thought to undergo a non-enzymatic conversion to a proluciferin ester. In a second step, the proluciferin ester is detected by adding a luciferase reaction mixture containing an esterase enzyme that converts the proluciferin ester to luciferin. The luciferin reacts with luciferase to produce an amount of light that is proportional to the amount of luciferin, and therefore to the amount of P450 enzyme activity. A sample that contains active P450 enzyme is typically compared to a control that is devoid of P450 activity."}, "[4]": {"target": "T3, CYP3A4 versus CYP3A7 (Homo sapiens, UniProt P24462)", "T3 construct": "purchased Discovery Labware (Supersomes™); host or cells: insect cell expression system", "T3 sequence (P24462 whole entry)": "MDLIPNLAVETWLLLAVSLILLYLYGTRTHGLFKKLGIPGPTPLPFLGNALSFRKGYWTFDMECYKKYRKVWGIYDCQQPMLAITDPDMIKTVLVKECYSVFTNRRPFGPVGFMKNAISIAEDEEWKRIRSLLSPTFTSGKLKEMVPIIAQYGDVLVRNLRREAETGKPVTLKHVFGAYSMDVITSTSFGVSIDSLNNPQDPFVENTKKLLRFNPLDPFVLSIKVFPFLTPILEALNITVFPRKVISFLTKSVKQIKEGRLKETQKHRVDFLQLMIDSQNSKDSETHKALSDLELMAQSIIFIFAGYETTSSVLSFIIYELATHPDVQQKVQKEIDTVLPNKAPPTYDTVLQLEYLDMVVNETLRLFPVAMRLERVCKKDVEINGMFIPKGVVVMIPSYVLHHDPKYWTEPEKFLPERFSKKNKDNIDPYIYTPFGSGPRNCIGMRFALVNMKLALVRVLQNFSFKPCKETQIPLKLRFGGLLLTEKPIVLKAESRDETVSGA", "test": "Two-step luminescent P450 assay, recombinant enzyme panel screen", "assay_type": "biochemical", "settings": "human, recombinant human CYP3A4 and CYP3A7 microsomes (Supersomes), pH 7.4; FIG. 2 conditions: 50 μM compound, 1 pmole P450, 30 minutes; read-out: selectivity for CYP3A4 over CYP3A7", "protocol": "as §1, §2, §3, §4, §5"}, "[5]": {"target": "T4, CYP3A5 (Homo sapiens, UniProt P20815)", "T4 construct": "purchased Discovery Labware (Supersomes™); host or cells: insect cell expression system", "T4 sequence (P20815 whole entry)": "as the sequence (P20815 whole entry) above", "test": "Two-step luminescent P450 assay, recombinant enzyme panel screen", "assay_type": "biochemical", "settings": "FIG. 20 conditions: 2 μM compound, 0.1 picomole P450, 100 mM KPO4 pH 7.4, 10 minutes at 37° C.", "protocol": "as §1, §2, §3, §4, §5"}, "[6]": {"target": "T5, CYP3A7 (Homo sapiens, UniProt P24462)", "T5 construct": "purchased Discovery Labware (Supersomes™); host or cells: insect cell expression system", "T5 sequence (P24462 whole entry)": "as the sequence (P24462 whole entry) above", "test": "Two-step luminescent P450 assay, recombinant enzyme panel screen", "assay_type": "biochemical", "settings": "FIG. 20 conditions: 2 μM compound, 0.1 picomole P450, 100 mM KPO4 pH 7.4, 10 minutes at 37° C.", "protocol": "as §1, §2, §3, §4, §5"}, "[7]": {"system": "panel of 21 recombinant human cytochrome P450 enzymes", "test": "Two-step luminescent P450 assay, recombinant enzyme panel screen", "assay_type": "biochemical", "protocol": "as §1, §2\nIn FIG. 2 and FIGS. 8-19, luciferin derivatives were screened against a panel of recombinant human cytochrome P450 enzyme and control microsomes (Supersomes™). […]\nBriefly, in a first step a proluciferin acetal of the present invention is oxidized initially by a P450 enzyme. […] In a second step, the proluciferin ester is detected by adding a luciferase reaction mixture containing an esterase enzyme that converts the proluciferin ester to luciferin. […]"}, "[8]": {"target": "T1, CYP3A4", "test": "Two-step luminescent P450 assay with luciferin derivatives, recombinant enzyme panel screen", "assay_type": "biochemical", "set-up": "purchased Discovery Labware (Supersomes™); host or cells: insect cell expression system", "settings": "for signal/background (S/B) ratio: CYP3A4 vs minus P450 control, 50 μM substrate, 1 pmole P450, 30 minutes at 37° C. (FIG. 2)", "protocol": "as §1, §2, §3, §4, §5"}, "[9]": {"target": "T1, CYP3A4", "test": "Concentration dependence of the CYP3A4 reaction with compound 3391", "assay_type": "biochemical", "set-up": "purchased Discovery Labware (Supersomes™); host or cells: insect cell expression system", "protocol": "The reactions were performed as described for FIGS. 3-6 except no inhibitors were present in the reactions, and the concentration of compound 3391 varied as indicated in FIG. 7. Signals are expressed as net relative luminescent units (RLU) calculated by subtracting the background RLU values of control reaction mixtures that lack CYP3A4 enzyme from the RLU values of the CYP3A4 reactions. The curve fit was performed with the program GraphPad Prism™.\nFIG. 7 illustrates the concentration dependence of the CYP3A4 reaction with compound 3391. […] The data fit well to a substrate inhibition model (R^2=0.99) described by the equation Y=(Vmax·X)/(Km+X+(X·X/Ki)), where X=substrate concentration, Y=activity in relative light units (RLU), Km=[…] and Ki=the substrate inhibition constant."}, "[10]": {"target": "T1, CYP3A4", "settings": "non-acetal CYP3A4 substrates, Cali et al. 2006; cited from earlier work"}}}
{"smiles": "Cc1ncc2n1-c1ccc(Cl)cc1C(c1ccccc1F)=NC2", "note": "[midazolam]", "values": [{"measurement": "effect on the CYP3A4/3391 reaction", "setting": "[1]", "value": "inhibited"}, {"measurement": "effect on CYP3A4 assay using luciferin-BE", "setting": "[2]", "value": "inhibited"}, {"measurement": "effect on CYP3A4 assay using luciferin-PFBE", "setting": "[2]", "value": "inhibited"}, {"measurement": "effect on CYP3A4 assay using luciferin-PPXE", "setting": "[2]", "value": "inhibited"}]}
{"smiles": "CC(C)OC(OC(C)C)C1CSC(c2nc3ccc(O)cc3s2)=N1", "note": "(stereo not drawn) [compound 3391]", "values": [{"measurement": "selectivity ratio at 30 min, 50 μM", "setting": "[3]", "value": 1.4}, {"measurement": "selectivity ratio at 30 min, 50 μM", "setting": "[4]", "value": 8.5}, {"measurement": "preference for CYP3A4 over CYP3A5", "setting": "[5]", "value": 8.0, "unit": "fold"}, {"measurement": "preference for CYP3A4 over CYP3A7", "setting": "[6]", "value": 48.5, "unit": "fold"}, {"measurement": "selectivity/preference for the CYP3A subfamily (CYP3A4, CYP3A5, CYP3A7)", "setting": "[7]; 50 μM, one picomole enzyme, 30 minutes at 37° C.", "value": "excellent selectivity"}, {"measurement": "activities with the other P450 enzymes screened", "setting": "[7]; FIG. 20 conditions: 2 μM compound, 0.1 picomole P450, 10 minutes", "value": "negligible"}, {"measurement": "fraction of compound oxidized during the incubation", "setting": "[8]; 0.1 picomoles of CYP3A4, 10 minute incubation, 2 μM", "value": "less than 10%"}, {"measurement": "signal/background (S/B) ratio", "setting": "[8]", "value": 1699}, {"measurement": "time over which product accumulation with CYP3A4 is linear", "setting": "[8]; FIG. 20 conditions", "value": "at least 10 minutes"}, {"measurement": "substrate concentration at maximal rate", "setting": "[9]; FIG. 7", "value": 12.5, "unit": "µM"}, {"measurement": "Ki", "setting": "[9]; substrate inhibition model fit, read-out: Ki (substrate inhibition constant)", "value": 171, "unit": "µM"}]}
{"smiles": "O=C(O)[C@H]1CSC(c2nc3ccc(OCc4cccc(CN5CCN(c6ccccc6)CC5)c4)cc3s2)=N1", "note": "[luciferin-PPXE, (S)-2-(6-(3-((4-phenylpiperazin-1-yl)methyl)benzyloxy)benzo[d]thiazol-2-yl)-4,5-dihydrothiazole-4-carboxylic acid, reference compound]", "values": [{"measurement": "Km", "setting": "[10]", "value": 25, "unit": "µM"}, {"measurement": "signal/background (S/B) ratio", "setting": "[8]", "value": 56}]}
{"smiles": "O=C(O)[C@H]1CSC(c2nc3ccc(OC(F)(F)c4c(F)c(F)c(F)c(F)c4F)cc3s2)=N1", "note": "[luciferin-PFBE, (S)-2-(6-(perfluorobenzyloxy)-benzo[d]thiazol-2-yl)-4,5-dihydrothiazole-4-carboxylic acid, reference compound]", "values": [{"measurement": "Km", "setting": "[10]", "value": 50, "unit": "µM"}, {"measurement": "signal/background (S/B) ratio", "setting": "[8]", "value": 92}]}
{"smiles": "O=C(O)[C@H]1CSC(c2nc3ccc(OCc4ccccc4)cc3s2)=N1", "note": "[luciferin-BE, (S)-2-(6-(benzyloxy)benzo[d]thiazol-2-yl)-4,5-dihydrothiazole-4-carboxylic acid, reference compound]", "values": [{"measurement": "Km", "setting": "[10]", "value": 50, "unit": "µM"}, {"measurement": "signal/background (S/B) ratio", "setting": "[8]", "value": 55}]}
